Data: article PMC3382824, “Antioxidative Characteristics of Anisomeles indica Extract and Inhibitory Effect of Ovatodiolide on Melanogenesis” (2012)

Target: mushroom tyrosinase
Experiment: spectrophotometric dopachrome assay (L-DOPA substrate, […] nm)
Type: biochemical

IC50: 253 µM
SMILES: C=C1C(=O)OC2C=C(C)CC3C=C(CCC=C(C)CCC12)C(=O)O3 (stereo not shown) [ovatodiolide]
